The record followed here is US20240393292A1, “ALLERGY ANTIGEN AND EPITOPE THEREOF” (HOYU CO., LTD., priority 2019, published 2024).

This experiment deals with IgE antibodies from patients. The experiment can be described thus: Wheat epitope mapping (2): overlapping 10-amino-acid peptide fragments shifted by one amino acid.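 On Rank of partial sequence as epitope binding to IgE antibody: key = sequence deemed particularly important within the common 15-residue sequence.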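 On epitope sequence binding to IgE antibody, rank (Key/Preferably/More preferably): key of grades: preferably = shorter partial sequence still acting as epitope; more preferably = sequence improving IgE binding; key = particularly important sequence.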 The class given is binding, human. In short, it runs like this:
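Cellulose-bound 10-mer peptides offset by one residue were probed with patient serum IgE and detected by chemiluminescence. Secondary-antibody-only signals were subtracted per peptide. Residual binding was expressed as % of the parent overlapping peptide, scored as none (<30%), poor (30–<50%), somewhat poor (50–<70%) or retained (≥70%).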

The mark [1] stands for this setting: serum of patient P2 (WDEIA), partial sequence.
The mark [2] stands for this setting: serum of patient P34 (WDEIA), sequence without X.
[3] abbreviates: serum of patient P29 (WDEIA), partial sequence.
The mark [4] stands for this setting: serum of patient P36 (WDEIA), sequence without X.
Where [5] appears, read: serum of patient P3 (WDEIA), sequence without X.
The mark [6] stands for this setting: serum of patient P9 (WDEIA), sequence without X.
Where [7] appears, read: serum of patient P8 (WDEIA), partial sequence.
The mark [8] stands for this setting: serum of patient P27 (WDEIA), sequence without X.
Setting [9] is: serum of patient P51 (child, general immediate type allergy to wheat), sequence without X.
Where [10] appears, read: serum of patient G9 (adult, general immediate type allergy to wheat), partial sequence.

For the substance “2495 (FQPSQLNPQ; REGION 1..9: note = epitope) [compound 2495]”, under setting [1], the “Epitope sequence binding to IgE antibody, rank of the sequence” value is “Key”. Consider “1551 (QQQQFLGQ; REGION 1..8: note = epitope) [compound 1551]”, for which the “Rank of partial sequence as epitope binding to IgE antibody” value (from here on “Rank of partial sequence”) under setting [2] is listed as “Preferably”.

With “2510 (PSQLNPQ; REGION 1..7: note = epitope) [compound 2510]”, the “Epitope sequence binding to IgE antibody, rank of the sequence” value under setting [3] is “Key”.

In the case of “2556 (QLVQQLCC; REGION 1..8: note = epitope) [compound 2556]”, the “Epitope sequence binding to IgE antibody, rank of the sequence” value (serum of patient P20 (WDEIA), partial sequence) is reported as “Key”.

With “1374 (PWQQQPLP; REGION 1..8: note = epitope) [compound 1374]”, the “Epitope sequence binding to IgE antibody, rank of the sequence” value (serum of patient P7 (WDEIA), sequence without X) is “Preferably”. For the substance “1253 (PIQQQPQPFP; REGION 1..10: note = epitope) [compound 1253]”, under setting [4], the “Epitope sequence binding to IgE antibody, rank of the sequence” value is recorded as “Preferably”. Regarding “1368 (KPWQQQ; REGION 1..6: note = epitope) [compound 1368]”, the “Epitope sequence binding to IgE antibody, rank of the sequence (Key/Preferably/More preferably/Further preferably)” value (serum of patient P2 (WDEIA), sequence without X) is “Key”.

Take “1890 (RTLQ; REGION 1..4: note = epitope) [compound 1890]”: the “epitope sequence binding to IgE antibody, rank (Key/Preferably/More preferably)” value (serum of patient G6 (adult, general immediate type allergy to wheat)) is listed as “Key”.

“1727 (KEAANF; REGION 1..6: note = epitope) [compound 1727]”: under “serum of patient P51 (child, general immediate type allergy to wheat)”, the “epitope sequence binding to IgE antibody, rank (Key/Preferably/More preferably)” value is “Key”. With “1770 (VSSYLKK; REGION 1..7: note = epitope) [compound 1770]”, the “epitope sequence binding to IgE antibody, rank (Key/Preferably/More preferably)” value (serum of patient P50 (child, general immediate type allergy to wheat)) was “Key”.

Regarding “2385 (VTEI; REGION 1..4: note = epitope) [compound 2385]”, the “Epitope sequence binding to IgE antibody, rank of the sequence (Key/Preferably/More preferably)” value (serum of patient P29 (WDEIA), sequence without X) was “Key”. As for “2328 (IIYSI; REGION 1..5: note = epitope) [compound 2328]”, the “Epitope sequence binding to IgE antibody, rank of the sequence (Key/Preferably/More preferably)” value under setting [2] is “Key”.

“2575 (QLVQ; REGION 1..4: note = epitope) [compound 2575]”: for the setting “serum of patient P28 (WDEIA), partial sequence”, the “Epitope sequence binding to IgE antibody, rank of the sequence” value is given as “Key”. “1660 (YNPDK; REGION 1..5: note = epitope) [compound 1660]”: the “Rank of partial sequence” value (serum of patient G1 (adult, general immediate type allergy to wheat), sequence without X) was “Key”. For the substance “1768 (VSSYLKK; REGION 1..7: note = epitope) [compound 1768]”, for the setting “serum of patient P35 (WDEIA)”, the “epitope sequence binding to IgE antibody, rank (Key/Preferably/More preferably)” value was “Key”. As for “1854 (RTLQR; REGION 1..5: note = epitope) [compound 1854]”, under “serum of patient P17 (WDEIA)”, the “epitope sequence binding to IgE antibody, rank (Key/Preferably/More preferably)” value is on record as “Key”. Take “1567 (PFPQTQQ; REGION 1..7: note = epitope) [compound 1567]”: the “Rank of partial sequence” value under setting [5] is “Preferably”. Regarding “2248 (IRNYRVAI; REGION 1..8: note = epitope) [compound 2248]”, the “Epitope sequence binding to IgE antibody, rank of the sequence (Key/Preferably/More preferably/Further preferably)” value (serum of patient P50 (child, general immediate type allergy to wheat), sequence without X) was “Key”. On to “1730 (SQVIIM; REGION 1..6: note = epitope) [compound 1730]”, for which the “epitope sequence binding to IgE antibody, rank (Key/Preferably/More preferably)” value (serum of patient P52 (child, general immediate type allergy to wheat)) was “Key”.

As for “1220 (IQQQP; REGION 1..5: note = epitope) [compound 1220]”, the “Epitope sequence binding to IgE antibody, rank of the sequence” value under setting [6] is recorded as “Key”. On to “1507 (YLQPQ; REGION 1..5: note = epitope) [compound 1507]”, for which the “Rank of partial sequence” value (serum of patient G9 (adult, general immediate type allergy to wheat), sequence without X) is on record as “Key”. “1750 (KEAANFT; REGION 1..7: note = epitope) [compound 1750]”: the “epitope sequence binding to IgE antibody, rank (Key/Preferably/More preferably)” value (serum of patient G7 (adult, general immediate type allergy to wheat)) is given as “Key”.

In the case of “2547 (QSTYQLVQQL; REGION 1..10: note = epitope) [compound 2547]”, under setting [1], the “Epitope sequence binding to IgE antibody, rank of the sequence” value is “Preferably”. For the substance “1959 (QFPGQQ; REGION 1..6: note = epitope) [compound 1959]”, the “epitope sequence binding to IgE antibody, rank (Key/Preferably/More preferably)” value (serum of patient P28 (WDEIA)) is “Preferably”. With “1499 (YLQPQQPISQ; REGION 1..10: note = epitope) [compound 1499]”, the “Rank of partial sequence” value (serum of patient G7 (adult, general immediate type allergy to wheat), sequence without X) is reported as “More preferably”.

Take “1188 (QQFPPQQ; REGION 1..7: note = epitope) [compound 1188]”: where the note is “serum of patient P21 (WDEIA), sequence without X”, the “Epitope sequence binding to IgE antibody, rank of the sequence” value was “Preferably”. As to “1351 (INVEN; REGION 1..5: note = epitope) [compound 1351]”, the “Epitope sequence binding to IgE antibody, rank of the sequence” value under setting [2] is given as “Preferably”. “2499 (SQVSF; REGION 1..5: note = epitope) [compound 2499]”: the “Epitope sequence binding to IgE antibody, rank of the sequence” value under setting [7] was “Preferably”. Consider “2673 (EAAEMNKR; REGION 1..8: note = epitope) [compound 2673]”, for which the “Epitope sequence binding to IgE antibody, rank of the sequence” value (serum of patient G7 (adult, general immediate type allergy to wheat), partial sequence) was “Key”. For the substance “1472 (YLQPQQPIS; REGION 1..9: note = epitope) [compound 1472]”, the “Rank of partial sequence” value under setting [8] is “Preferably”.

As for “1430 (YLQPQQPIS; REGION 1..9: note = epitope) [compound 1430]”, the “Rank of partial sequence” value (serum of patient P15 (WDEIA), sequence without X) was “Preferably”. “2601 (QQSTYQLVQ; REGION 1..9: note = epitope) [compound 2601]”: under “serum of patient P53 (child, general immediate type allergy to wheat), partial sequence”, the “Epitope sequence binding to IgE antibody, rank of the sequence” value was “Preferably”. In the case of “2617 (SKRV; REGION 1..4: note = epitope) [compound 2617]”, the “Epitope sequence binding to IgE antibody, rank of the sequence” value (serum of patient P24 (WDEIA), partial sequence) is “Key”.

On to “1655 (FVPISG; REGION 1..6: note = epitope) [compound 1655]”, for which the “Rank of partial sequence” value under setting [9] is given as “Key”. Regarding “1846 (TVRTLQR; REGION 1..7: note = epitope) [compound 1846]”, the “epitope sequence binding to IgE antibody, rank (Key/Preferably/More preferably)” value (serum of patient P12 (WDEIA)) is “Key”. On to “2721 (GIGTVPVG; REGION 1..8: note = epitope) [compound 2721]”, for which, for the setting “serum of patient P25 (WDEIA), partial sequence”, the “Epitope sequence binding to IgE antibody, rank of the sequence” value is listed as “Key”. Turning to “1474 (LQPQQPIS; REGION 1..8: note = epitope) [compound 1474]”, under setting [8], the “Rank of partial sequence” value is “Preferably”. With “2658 (FEKEAAE; REGION 1..7: note = epitope) [compound 2658]”, under “serum of patient P35 (WDEIA), partial sequence”, the “Epitope sequence binding to IgE antibody, rank of the sequence” value is recorded as “Key”.

In the case of “1360 (INVEN; REGION 1..5: note = epitope) [compound 1360]”, the “Epitope sequence binding to IgE antibody, rank of the sequence” value under setting [9] was “Preferably”.

As to “1311 (NVEN; REGION 1..4: note = epitope) [compound 1311]”, the “Epitope sequence binding to IgE antibody, rank of the sequence” value (serum of patient P10 (WDEIA), sequence without X) was “Key”. As to “1170 (FPPQQP; REGION 1..6: note = epitope) [compound 1170]”, the “Epitope sequence binding to IgE antibody, rank of the sequence” value under setting [5] is “Key”. As for “2402 (TEIV; REGION 1..4: note = epitope) [compound 2402]”, the “Epitope sequence binding to IgE antibody, rank of the sequence (Key/Preferably/More preferably)” value under setting [4] was “Key”.

Regarding “2649 (KEAAE; REGION 1..5: note = epitope) [compound 2649]”, the “Epitope sequence binding to IgE antibody, rank of the sequence” value under setting [3] was “Preferably”. With “1420 (SQQQA; REGION 1..5: note = epitope) [compound 1420]”, the “Epitope sequence binding to IgE antibody, rank of the sequence” value under setting [6] was “Key”. On to “1555 (QVPLVQQQ; REGION 1..8: note = epitope) [compound 1555]”, for which the “Rank of partial sequence” value (serum of patient P35 (WDEIA), sequence without X) is “Preferably”. Regarding “2621 (LLAS; REGION 1..4: note = epitope) [compound 2621]”, for the setting “serum of patient G2 (adult, general immediate type allergy to wheat), partial sequence”, the “Epitope sequence binding to IgE antibody, rank of the sequence” value was “Key”. With “2411 (TEIVL; REGION 1..5: note = epitope) [compound 2411]”, the “Epitope sequence binding to IgE antibody, rank of the sequence (Key/Preferably/More preferably)” value (serum of patient P52 (child, general immediate type allergy to wheat), sequence without X) is on record as “Preferably”. With “2610 (LQQSTYQLV; REGION 1..9: note = epitope) [compound 2610]”, the “Epitope sequence binding to IgE antibody, rank of the sequence” value under setting [10] is given as “Key”.

Take “2630 (LASLSK; REGION 1..6: note = epitope) [compound 2630]”: the “Epitope sequence binding to IgE antibody, rank of the sequence” value under setting [10] is given as “Key”. Take “1245 (PQQPPC; REGION 1..6: note = epitope) [compound 1245]”: the “Epitope sequence binding to IgE antibody, rank of the sequence” value (serum of patient P31 (WDEIA), sequence without X) was “Preferably”. With “1577 (PFPQTQQ; REGION 1..7: note = epitope) [compound 1577]”, under “serum of patient P16 (WDEIA), sequence without X”, the “Rank of partial sequence” value is recorded as “More preferably”. For “2330 (AIRAI; REGION 1..5: note = epitope) [compound 2330]”, the “Epitope sequence binding to IgE antibody, rank of the sequence (Key/Preferably/More preferably)” value (serum of patient P53 (child, general immediate type allergy to wheat), sequence without X) is on record as “Key”. On to “2500 (QVSF; REGION 1..4: note = epitope) [compound 2500]”, for which the “Epitope sequence binding to IgE antibody, rank of the sequence” value under setting [7] is recorded as “Key”.
